Experimental data reported in US5389663A, “1-(1h-1,2,4-triazole-yl)-2-propanol compounds” (Takeda Chemical Industries, Ltd., priority 1991, dated 1995).
Read-outs that look alike come from different tables or passages of the source.

Experiments:
[1] = tested on: Candida albicans; experiment: Protective effect against Candida albicans infection in mice; type: in vivo, Crj:CDF1 mice; settings: 168 h, minimum lethal dose of Candida albicans iv, drug once immediately after infection, survival 7 days after infection
From the text: Test Method: Five-week old Crj:CDF1 mice were inoculated with the minimum lethal dose of Candida albicans intravenously. The test drug was given once immediately after infection. The effectiveness of the drug was expressed in ED50 values calculated by the Reed and Muench method from the survival rate 7 days after infection.

[2] = tested on: Aspergillus niger IFO 4066; experiment: Paper disc agar diffusion, growth inhibition zone, Aspergillus niger IFO 4066; type: cell-based; settings: IFO4066, 48 h, Table 4, medium A, 28° C., two days, 1000 μ/ml, 8 mm disc, read-out: Diameter of growth inhibition zone
Procedure: (§1) Evaluation of the antifungal activities of the compound of formula (I) was conducted by the following method: a sheet of filter paper disc (manufactured by Toyo Seisakusho, 8 mm in diameter) soaked in a […] solution of a compound of formula (I) in methanol was placed on an agar plate containing various fungi, which was incubated at 28° C. for two days, and the diameter of the growth inhibition zone around the filter paper disc was measured. The following culture media were used: A: yeast nitrogen base agar medium (pH 7.0) B: Sabouraud agar medium

[3] = tested on: Microsporum gypseum IFO 6075; experiment: Paper disc agar diffusion, growth inhibition zone, Microsporum gypseum IFO 6075; type: cell-based; settings: Nannizzia gypsea, IFO6075, 48 h; Table 4; medium B (Sabouraud agar), 28° C., two days, 1000 μ/ml, 8 mm disc; read-out: Diameter of growth inhibition zone
Procedure: as §1

[4] = tested on: Trichophyton rubrum IFO 6467; experiment: Paper disc agar diffusion, growth inhibition zone, Trichophyton rubrum IFO 6467; type: cell-based; settings: IFO6467, 48 h, Table 4, medium B (Sabouraud agar), 28° C., two days, 1000 μ/ml, 8 mm disc, read-out: Diameter of growth inhibition zone
Procedure: as §1

[5] = tested on: Trichophyton mentagrophytes IFO 7522; experiment: Paper disc agar diffusion, growth inhibition zone, Trichophyton mentagrophytes IFO 7522; type: cell-based; settings: IFO7522, 48 h, Table 4, medium B (Sabouraud agar), 28° C., two days, 1000 μ/ml, 8 mm disc, read-out: Diameter of growth inhibition zone
Procedure: as §1

[6] = tested on: Candida utilis IFO 0619; experiment: Paper disc agar diffusion, growth inhibition zone, Candida utilis IFO 0619; type: cell-based; settings: Williopsis jadinii, IFO0619, 48 h; Table 4; medium A, 28° C., two days, 1000 μ/ml, 8 mm disc; read-out: Diameter of growth inhibition zone
Procedure: as §1

[7] = tested on: Candida albicans IFO 0583; experiment: Paper disc agar diffusion, growth inhibition zone, Candida albicans IFO 0583; type: cell-based; settings: 28° C., 8 mm disc
Summary of the method: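 An 8 mm filter-paper disc soaked in a […] methanol solution of compound was laid on yeast nitrogen base agar (pH 7.0) seeded with fungus. Plates were incubated for two days at 28 °C, and the diameter of the growth inhibition zone was measured.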

[8] = tested on: Aspergillus fumigatus IFO 6344; experiment: Paper disc agar diffusion, growth inhibition zone, Aspergillus fumigatus IFO 6344; type: cell-based; settings: IFO6344, 48 h, Table 4, medium A, 28° C., two days, 1000 μ/ml, 8 mm disc, read-out: Diameter of growth inhibition zone
Procedure: as §1

[9] = tested on: Cryptococcus neoformans IFO 0410; experiment: Paper disc agar diffusion, growth inhibition zone, Cryptococcus neoformans IFO 0410; type: cell-based; settings: IFO0410, 48 h, Table 4, medium A, 28° C., two days, 1000 μ/ml, 8 mm disc, read-out: Diameter of growth inhibition zone
Procedure: as §1

[10] = 48 h, pH 7, Table 4, medium A (yeast nitrogen base agar, pH 7.0), two days, 1000 μ/ml in methanol, read-out: Diameter of growth inhibition zone

SMILES	ED50 ([1]; po) [mg/kg]	ED50 ([1]; sc) [mg/kg]	zone of inhibition at 1000 µg/mL [2] [mm]	zone of inhibition at 1000 µg/mL [3] [mm]	zone of inhibition at 1000 µg/mL [4] [mm]	zone of inhibition at 1000 µg/mL [5] [mm]	zone of inhibition at 1000 µg/mL [6] [mm]	zone of inhibition at 1000 µg/mL [7, 10] [mm]	zone of inhibition at 1000 µg/mL [8] [mm]	zone of inhibition at 1000 µg/mL [9] [mm]	zone of inhibition at 1000 µg/mL ([7]; Candida albicans, IFO0583, 48 h, Table 5, Medium A, two-day culture, 1000 μ/ml, read-out: Diameter of growth-inhibition zone) [mm]
C[C@H]([C@](O)(Cn1cncn1)c1ccc(F)cc1F)S(=O)(=O)N(C)C [Compound 2, N,N-dimethyl-[(2R,3R)-3-(2,4-difluorophenyl)-3-hydroxy-4-(1H-1,2,4-triazol-1-yl) -2-butane]sulfonamide]	5	5	25	22	35	25	36	25	25	38	–
C[C@@H](SNc1ccc(Br)cc1)[C@](O)(Cn1cncn1)c1ccc(F)cc1F [Compound 21, N-(4-bromophenyl)-[(2R,3R)-3-(2,4-difluorophenyl)-3-hydroxy-4-(1H-1,2,4-triazol-1-yl)-2butane]sulfenamide]	–	–	20	24	45	25	40	43	30	30	–
C[C@H]([C@](O)(Cn1cncn1)c1ccc(F)cc1F)S(=O)(=O)N1CCN(c2ccccc2)CC1 [Compound 23]	7.1	–	20	30	40	25	45	45	22	40	–
C[C@H]([C@](O)(Cn1cncn1)c1ccc(F)cc1F)S(=O)(=O)N1CCN(c2nc(Cl)ncc2F)CC1 [Compound 91, 1-[(2R,3R)-3-(2,4-difluorophenyl)-3-hydroxy-4-(1H-1,2,4-triazol-1-yl)-2-butanesulfonyl]-4-(2-chloro-5-fluoropyrimidin-4-yl)piperazine]	11.3	–	–	–	–	–	–	–	–	–	50
